Experimental data taken from publication PMC6902473 (Clinical Epigenetics, 2019).
“And” between values parts separate entries of the source, which are not always exact repeats. Equal entries are not always repeated.

Experiments:
[1] = Plasma pharmacokinetics of vorinostat after oral administration (non-compartmental analysis)
Excerpt: The assays were validated according to the common FDA and EMA guidelines on bioanalytical method validation.

[2] = Phase I/II intra-patient dose escalation trial: safety (DLT, individual MTD, SDR, adverse events CTCAE v4.0)
Protocol: The study design was a single-arm, multi-center phase I/II clinical trial with two phases: Phase I was an intra-patient dose (de)escalation period until an individual maximum tolerable dose (MTD) was reached. […] A DLT was defined as grade 3 or 4 toxicity according to a selection of Common Toxicity Criteria for Adverse Events (CTCAE) (V4.0) and judged by the investigator as definitely, probably, or possibly related to the study drug. The starting dose was 180 mg/m^2/day and the minimum dose was 30 mg/m^2/day. A dosing nomogram was used to minimize interpatient dosing variability.
De-escalation was done in steps of 50 mg/m^2/day until a minimal dose of 30 mg/m^2/day was reached. […] Upon reaching her or his individual MTD, a patient seamlessly entered phase II of the protocol.
During phase II, disease assessments were performed every 3 months, starting 3 months after reaching individual MTD. If treatment was discontinued for any reason during phase II, treatment was prolonged thereafter to provide a minimal treatment window of 3 months before measuring response. Patients without progressive disease continued the therapy at their individual MTD until disease progression (but no longer than 9 months). In case of clinical benefit, treatment could be continued on an individual basis at the discretion of the investigator. Toxicities were graded according CTCAE V4.0.
The primary end point was to determine a safe dose recommendation (SDR), defined as the highest dose with a DLT in no more than 1/50 patients.
The DLT associated with the starting dose was to be continuously monitored using a Bayesian criterion with a non-informative prior and a binomial-beta model for the DLT rate r. […] This decision process was repeated, i.e., it was applied to the lowered starting dose in an analogous way.
All adverse events were summarized, using MedDRA preferred terms.

[3] = daily and continuous dosing; cited from earlier work
[4] = 530 mg/m2/d oral, plasma, maximum of 3 values
[5] = 530 mg/m2/d oral, plasma, minimum of 3 values
[6] = maximum Grade 3 CTCAE v4.0, n = 50

SMILES: O=C(CCCCCCC(=O)Nc1ccccc1)NO [vorinostat]
- Clearance, Maximum [1, 4]: 678 L/h
- Cmax, Maximum [1, 4]: 629 ng/mL
- Clearance, Minimum [1, 5]: 241 L/h
- Cmax, Minimum [1, 5]: 451 ng/mL
- Vz, Minimum [1, 5]: 508 L
- t1/2 ([1]; dose level 130 mg/m2/d, mean): 2.16 h
- t1/2 ([1]; dose level 130 mg/m2/d, median): 2.16 h
- t1/2 ([1]; dose level 180 mg/m2/d, mean): 2.22 h
- t1/2 ([1]; dose level 330 mg/m2/d, mean): 2.13 h
- AUC(0-t) ([1]; human, in vivo, 130 mg/m2): 1140 ng·h/mL
- Clearance ([1]; human, in vivo, 130 mg/m2): 167 L/h
- Vz ([1]; human, in vivo, 130 mg/m2): 563 L
- AUC(0-t) ([1]; human, in vivo, 130 mg/m2, AUClast): 4.32 µM·h and 970 ng·h/mL
- Clearance ([1]; human, in vivo, 130 mg/m2, Clearance): 108 L/h
- Cmax ([1]; human, in vivo, 130 mg/m2, Cmax): 1.02 µM and 269 ng/mL
- Vd ([1]; human, in vivo, 130 mg/m2, Vz): 336 L
- Clearance ([1]; human, in vivo, 180 mg/m2): 225 L/h
- Tmax ([1]; human, in vivo, 180 mg/m2): 2.39 h
- Vz ([1]; human, in vivo, 180 mg/m2): 681 L
- t1/2 ([1]; human, in vivo, 180 mg/m2): 1.93 h
- AUC(0-t) ([1]; human, in vivo, 180 mg/m2, AUClast): 3.75 µM·h and 992 ng·h/mL
- Clearance ([1]; human, in vivo, 180 mg/m2, Clearance): 182 L/h
- Cmax ([1]; human, in vivo, 180 mg/m2, Cmax): 1.06 µM and 281 ng/mL
- Tmax ([1]; human, in vivo, 180 mg/m2, Tmax): 1.5 h
- Vd ([1]; human, in vivo, 180 mg/m2, Vz): 490 L
- Clearance ([1]; human, in vivo, 214 mg/m2): 399 L/h
- AUC(0-t) ([1]; human, in vivo, 214 mg/m2, AUClast): 2.52 µM·h and 666 ng·h/mL
- Clearance ([1]; human, in vivo, 214 mg/m2, Clearance): 399 L/h
- Cmax ([1]; human, in vivo, 214 mg/m2, Cmax): 1.29 µM and 341 ng/mL
- half-life ([1]; human, in vivo, 214 mg/m2, t1/2): 1.12 h
- AUCtotal ([1]; human, in vivo, 230 mg/m2): 1310 ng·h/mL
- Clearance ([1]; human, in vivo, 230 mg/m2): 257 L/h
- Vz ([1]; human, in vivo, 230 mg/m2): 640 L
- AUC(0-t) ([1]; human, in vivo, 230 mg/m2, AUClast): 4.89 µM·h and 1290 ng·h/mL
- Clearance ([1]; human, in vivo, 230 mg/m2, Clearance): 221 L/h
- Cmax ([1]; human, in vivo, 230 mg/m2, Cmax): 1.44 µM and 380 ng/mL
- Tmax ([1]; human, in vivo, 230 mg/m2, Tmax): 1.5 h
- Vd ([1]; human, in vivo, 230 mg/m2, Vz): 532 L
- half-life ([1]; human, in vivo, 230 mg/m2, t1/2): 1.63 h
- Clearance ([1]; human, in vivo, 250 mg/m2): 189 L/h
- Tmax ([1]; human, in vivo, 250 mg/m2): 1.75 h
- t1/2 ([1]; human, in vivo, 250 mg/m2): 1.48 h
- AUC(0-t) ([1]; human, in vivo, 250 mg/m2, AUClast): 5.77 µM·h and 1520 ng·h/mL
- Clearance ([1]; human, in vivo, 250 mg/m2, Clearance): 189 L/h
- Tmax ([1]; human, in vivo, 250 mg/m2, Tmax): 1.75 h
- Vd ([1]; human, in vivo, 250 mg/m2, Vz): 398 L
- half-life ([1]; human, in vivo, 250 mg/m2, t1/2): 1.48 h
- AUC(0-t) ([1]; human, in vivo, 280 mg/m2): 4.96 µM·h
- Clearance ([1]; human, in vivo, 280 mg/m2): 195 L/h
- Tmax ([1]; human, in vivo, 280 mg/m2): 2.09 h
- t1/2 ([1]; human, in vivo, 280 mg/m2): 1.83 h
- AUC(0-t) ([1]; human, in vivo, 280 mg/m2, AUClast): 1310 ng·h/mL and 6.33 µM·h
- Clearance ([1]; human, in vivo, 280 mg/m2, Clearance): 207 L/h
- Tmax ([1]; human, in vivo, 280 mg/m2, Tmax): 1.5 h
- half-life ([1]; human, in vivo, 280 mg/m2, t1/2): 1.5 h
- Clearance ([1]; human, in vivo, 330 mg/m2): 149 L/h
- Tmax ([1]; human, in vivo, 330 mg/m2): 2.00 h
- Vz ([1]; human, in vivo, 330 mg/m2): 427 L
- AUC(0-t) ([1]; human, in vivo, 330 mg/m2, AUClast): 8.06 µM·h and 2130 ng·h/mL
- Clearance ([1]; human, in vivo, 330 mg/m2, Clearance): 126 L/h
- Cmax ([1]; human, in vivo, 330 mg/m2, Cmax): 1.83 µM and 483 ng/mL
- Tmax ([1]; human, in vivo, 330 mg/m2, Tmax): 2.5 h
- Vd ([1]; human, in vivo, 330 mg/m2, Vz): 429 L
- half-life ([1]; human, in vivo, 330 mg/m2, t1/2): 1.89 h
- AUC(0-t) ([1]; human, in vivo, 380 mg/m2, AUClast): 14.2 µM·h and 3750 ng·h/mL
- Cmax ([1]; human, in vivo, 380 mg/m2, Cmax): 3.38 µM and 893 ng/mL
- Tmax ([1]; human, in vivo, 380 mg/m2, Tmax): 4.3 h
- Clearance ([1]; human, in vivo, 430 mg/m2): 174 L/h
- Tmax ([1]; human, in vivo, 430 mg/m2): 1.00 h
- t1/2 ([1]; human, in vivo, 430 mg/m2): 2.49 h
- AUC(0-t) ([1]; human, in vivo, 430 mg/m2, AUClast): 6.39 µM·h and 1690 ng·h/mL
- Clearance ([1]; human, in vivo, 430 mg/m2, Clearance): 174 L/h
- Vd ([1]; human, in vivo, 430 mg/m2, Vz): 661 L
- half-life ([1]; human, in vivo, 430 mg/m2, t1/2): 2.49 h
- Clearance ([1]; human, in vivo, 480 mg/m2): 237 L/h
- AUC(0-t) ([1]; human, in vivo, 480 mg/m2, AUClast): 14.2 µM·h and 3760 ng·h/mL
- Clearance ([1]; human, in vivo, 480 mg/m2, Clearance): 237 L/h
- Cmax ([1]; human, in vivo, 480 mg/m2, Cmax): 4.64 µM and 1230 ng/mL
- Tmax ([1]; human, in vivo, 480 mg/m2, Tmax): 0.5 h
- Vd ([1]; human, in vivo, 480 mg/m2, Vz): 421 L
- Cmax ([1]; human, in vivo, Cmax): > 270 ng/mL
- AUC0_0-inf/D ([1]; human, in vivo, po): 5.49 ± 2.75 (ng/mL*h)/(mg/d)
- Clearance ([1]; human, in vivo, po): 235 ± 149 L/h
- Clearance, 25% Percentile ([1]; human, in vivo, po): 181 L/h
- Cmax/D ([1]; human, in vivo, po): 1.70 ± 1.18 (ng/mL)/(mg/d)
- Vz ([1]; human, in vivo, po): 644 ± 460 L
- Vz, 25% Percentile ([1]; human, in vivo, po): 397 L
- t½ ([1]; human, in vivo, po): 1.98 ± 0.96 h
- Clearance, Mean ([1]; human, in vivo, po, 530 mg/m2): 408 L/h
- Clearance, Median ([1]; human, in vivo, po, 530 mg/m2): 304 L/h
- Vz, Maximum ([1]; human, in vivo, po, 530 mg/m2): 1330 L
- Vz, Mean ([1]; human, in vivo, po, 530 mg/m2): 1008 L
- Vz, Median ([1]; human, in vivo, po, 530 mg/m2): 1186 L
- AUC(0-t) ([1]; human, in vivo, po, 530 mg/m2, AUClast, Median): 5.82 µM·h and 1540 ng·h/mL
- Tmax ([1]; human, in vivo, po, 530 mg/m2, Tmax, Mean): 2.17 h
- half-life ([1]; human, in vivo, po, 530 mg/m2, t1/2, Mean): 1.84 h
- half-life ([1]; human, in vivo, po, 530 mg/m2, t1/2, Median): 1.46 h
- AUClast, Median ([1]; human, in vivo, po, 580 mg/m2): 10.3 µM·h
- Clearance, Maximum ([1]; human, in vivo, po, 580 mg/m2): 453 L/h
- Clearance, Mean ([1]; human, in vivo, po, 580 mg/m2): 295 L/h
- Clearance, Median ([1]; human, in vivo, po, 580 mg/m2): 211 L/h
- Clearance, Minimum ([1]; human, in vivo, po, 580 mg/m2): 155 L/h
- Cmax, Maximum ([1]; human, in vivo, po, 580 mg/m2): 1689 ng/mL
- Cmax, Minimum ([1]; human, in vivo, po, 580 mg/m2): 315 ng/mL
- Tmax, Maximum ([1]; human, in vivo, po, 580 mg/m2): 2.00 h
- Tmax, Mean ([1]; human, in vivo, po, 580 mg/m2): 1.40 h
- Vz, Maximum ([1]; human, in vivo, po, 580 mg/m2): 2135 L
- Vz, Mean ([1]; human, in vivo, po, 580 mg/m2): 793 L
- Vz, Median ([1]; human, in vivo, po, 580 mg/m2): 480 L
- t1/2, Maximum ([1]; human, in vivo, po, 580 mg/m2): 3.30 h
- t1/2, Minimum ([1]; human, in vivo, po, 580 mg/m2): 0.850 h
- AUC(0-t) ([1]; human, in vivo, po, 580 mg/m2, AUClast, Mean): 11.3 µM·h
- Cmax ([1]; human, in vivo, po, 580 mg/m2, Cmax, Mean): 4.33 µM and 1140 ng/mL
- Cmax ([1]; human, in vivo, po, 580 mg/m2, Cmax, Median): 5.42 µM and 1430 ng/mL
- half-life ([1]; human, in vivo, po, 580 mg/m2, t1/2, Mean): 1.78 h
- half-life ([1]; human, in vivo, po, 580 mg/m2, t1/2, Median): 1.62 h
- Tmax ([1]; human, in vivo, po, Tmax): 2.07 ± 1.37 h
- Cmax ([1]; read-out: Cmax, Maximum, 530 mg/m2/d oral, plasma, maximum of 3 values): 2380 nM
- Cmax ([1]; read-out: Cmax, Minimum, 530 mg/m2/d oral, plasma, minimum of 3 values): 1710 nM
- median individual MTD ([2]; Safety population (n = 50)): 280 mg/m^2/day
- patients who reached the maximum individual MTD of 580 mg/m^2/day ([2]; Safety population (n = 50)): 4/50
- treatment-related deaths ([2]; Safety population (n = 50)): No treatment-related deaths
- safe dose recommendation (SDR) ([2]; highest dose with a DLT in no more than 1/50 patients, starting dose for individual dose escalation): 130 mg/m^2/day
- Patients with treatment related AE: Anemia [2, 6]: 2 (4.0) Patients (%)
- Patients with treatment related AE: Decreased appetite [2, 6]: 2 (4.0) Patients (%)
- Patients with treatment related AE: Diarrhea [2, 6]: 1 (2.0) Patients (%)
- Patients with treatment related AE: Fatigue [2, 6]: 7 (14.0) Patients (%)
- Patients with treatment related AE: Headache [2, 6]: 1 (2.0) Patients (%)
- Patients with treatment related AE: Hypermagnesemia [2, 6]: 3 (6.0) Patients (%)
- Patients with treatment related AE: Nausea [2, 6]: 4 (8.0) Patients (%)
- Patients with treatment related AE: Platelet count decreased [2, 6]: 15 Patients (%) and 15 (30.0) Patients (%)
- Patients with treatment related AE: Vomiting [2, 6]: 2 (4.0) Patients (%)
- Patients with treatment related AE: Weight decreased [2, 6]: 3 (6.0) Patients (%)
- Patients with treatment related AE: White blood cell decreased [2, 6]: 8 (16.0) Patients (%)
- Patients with treatment related AE: Platelet count decreased ([2]; maximum Grade 4 CTCAE v4.0, n = 50): 16 Patients (%) and 16 (32.0) Patients (%)
- maximum individual MTD ([2]; maximum dose of the escalation scheme): 580 mg/m^2/day
- MTD ([2]; single patient: High grade glioma, highest methylation score for glioblastoma IDH wt): 530 mg/m^2/d
- MTD ([2]; single patient: High grade glioma, methylation profile pilocytic astrocytoma, BRAF (p.V600E)): 280 mg/m^2/d
- MTD ([2]; single patient: High grade glioma, no molecular data, last dose level 280 mg/m^2/d): 530 mg/m^2/d
- MTD ([2]; single patient: Medulloblastoma): 580 mg/m^2/d
- MTD ([2]; single patient: SETTLE tumor): 580 mg/m^2/d
- pediatric recommended phase 2 dose [3]: 230 mg/m^2/day
